Data as given in article PMC9136576 (Acta Pharmaceutica Sinica. B, 2021).

What was measured:
Test in all cases: H2O2 reduction peroxidase assay
Type in all cases: biochemical
Details in all cases: covalent; […] protein, […] H2O2, […] min preincubation, room temperature
rhPRDX4 = target: T1, rhPRDX4 (Homo sapiens, UniProt Q13162)
T1 sequence (Q13162 38-271): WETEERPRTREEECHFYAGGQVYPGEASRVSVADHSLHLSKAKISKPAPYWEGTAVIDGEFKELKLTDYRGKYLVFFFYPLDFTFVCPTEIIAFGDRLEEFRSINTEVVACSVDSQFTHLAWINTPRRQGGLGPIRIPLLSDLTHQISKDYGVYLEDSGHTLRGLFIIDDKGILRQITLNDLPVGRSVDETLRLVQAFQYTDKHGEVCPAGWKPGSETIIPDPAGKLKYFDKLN

rhPRDX6 = target: T2, rhPRDX6 (Homo sapiens, UniProt P30041)
T2 sequence (P30041 2-224): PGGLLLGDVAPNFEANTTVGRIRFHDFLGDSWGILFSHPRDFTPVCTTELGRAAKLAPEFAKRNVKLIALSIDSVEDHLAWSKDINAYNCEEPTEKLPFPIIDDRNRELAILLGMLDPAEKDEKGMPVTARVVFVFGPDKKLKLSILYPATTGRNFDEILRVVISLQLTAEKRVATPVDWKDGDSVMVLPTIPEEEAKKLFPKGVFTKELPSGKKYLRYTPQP

rhPRDX2 = target: T3, rhPRDX2 (Homo sapiens, UniProt P32119)
T3 sequence (P32119 2-198): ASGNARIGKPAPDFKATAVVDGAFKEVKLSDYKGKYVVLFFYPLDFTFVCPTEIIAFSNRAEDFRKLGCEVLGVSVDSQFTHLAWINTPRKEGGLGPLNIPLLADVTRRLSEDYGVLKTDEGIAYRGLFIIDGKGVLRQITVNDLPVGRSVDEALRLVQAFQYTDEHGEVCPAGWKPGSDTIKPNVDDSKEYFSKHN

CC1=C(O)C(=O)C=C2C1=CC=C1[C@@]2(C)CC[C@@]2(C)[C@@H]3C[C@](C)(C(=O)O)CC[C@]3(C)CC[C@]12C [celastrol]
% inhibition at 5 μmol/L (rhPRDX4): celastrol could significantly suppress the peroxidase activity of rhPRDXs for H2O2 reduction
% inhibition at 5 μmol/L (rhPRDX6): celastrol could significantly suppress the peroxidase activity of rhPRDXs for H2O2 reduction
% inhibition at 5 μmol/L (rhPRDX2): celastrol could significantly suppress the peroxidase activity of rhPRDXs for H2O2 reduction
